Tests used:
crabgrass = test: Test B pre/postemergence crabgrass; assay type: in vivo, Digitaria sanguinalis
Method in brief: (§1)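 Response is a visual 0-to-10 score relative to untreated plants, where 0 means no effect and 10 means complete control, taken twelve to sixteen days after application. Treatments went onto soil at planting and onto foliage of 1- to 4-leaf plants, using a surfactant-containing non-phytotoxic solvent.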

rape = test: Test B pre/postemergence rape; assay type: in vivo, Brassica napus
Method in brief: as §1

duck salad = test: Test B flood test duck salad; assay type: in vivo, Heteranthera limosa
Method in brief: (§2)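 Plants were grown to the 2-leaf stage before treatment with test chemical, then held in a greenhouse for twelve to sixteen days. Injury was visually rated against untreated controls on a 0–10 scale, where 0 is no effect and 10 is complete control.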

purple nutsedge = test: Test B pre/postemergence purple nutsedge; assay type: in vivo, Cyperus rotundus
Method in brief: as §1

cocklebur = test: Test B pre/postemergence cocklebur; assay type: in vivo, Xanthium strumarium
Method in brief: as §1

wild oat = test: Test B pre/postemergence wild oat; assay type: in vivo, Avena fatua
Method in brief: as §1

sugar beet = test: Test B pre/postemergence sugar beet; assay type: in vivo, Beta vulgaris
Method in brief: as §1

pigweed = test: Test B pre/postemergence pigweed; assay type: in vivo, Amaranthus retroflexus
Method in brief: as §1

morningglory = test: Test B pre/postemergence morningglory; assay type: in vivo, Ipomoea hederacea
Method in brief: as §1

velvetleaf = test: Test B pre/postemergence velvetleaf; assay type: in vivo, Abutilon theophrasti
Method in brief: as §1

corn = test: Test B pre/postemergence corn; assay type: in vivo, Zea mays
Method in brief: as §1

soybean = test: Test B pre/postemergence soybean; assay type: in vivo, Glycine max
Method in brief: as §1

giant foxtail = test: Test B pre/postemergence giant foxtail; assay type: in vivo, Setaria faberii
Method in brief: as §1

rice = test: Test B flood test rice; assay type: in vivo, Oryza sativa
Method in brief: as §2

wheat = test: Test B pre/postemergence wheat; assay type: in vivo, Triticum aestivum
Method in brief: as §1

smallflower flatsedge = test: Test B flood test smallflower flatsedge; assay type: in vivo, Cyperus difformis
Method in brief: as §2

[1] = Postemergence, Rate 62 g/ha, scale 0 to 10, 0 is no effect, 10 is complete control
[2] = Postemergence, Rate 125 g/ha, scale of 0 to 10 where 0 is no effect and 10 is complete control
[3] = Postemergence, Rate 250 g/ha, scale of 0 to 10, 0 is no effect, 10 is complete control
[4] = Postemergence, Rate 500 g/ha, scale of 0 to 10 where 0 is no effect and 10 is complete control
[5] = Preemergence, Rate 125 g/ha, scale of 0 to 10 where 0 is no effect and 10 is complete control
[6] = Preemergence, Rate 250 g/ha, scale 0 to 10 (0 no effect, 10 complete control)
[7] = Preemergence, Rate 500 g/ha, scale of 0 to 10 where 0 is no effect and 10 is complete control
[8] = Preemergence, Rate 62 g/ha, scale of 0 to 10 where 0 is no effect and 10 is complete control
[9] = Rate 62 g/ha, flood test species, Pre-emergence, visual evaluation after twelve to sixteen days
[10] = Rate 125 g/ha, under heading Pre-emergence, flood test species, visual evaluation after twelve to sixteen days
[11] = Rate 250 g/ha, Pre-emergence (flood test species), scale 0 to 10, 0 is no effect, 10 is complete control
[12] = Rate 500 g/ha, Pre-emergence section of Table B, 0 to 10 scale (0 no effect, 10 complete control)

CC(C)N(C(=O)n1oc(=O)n(Cc2nnc(Cl)s2)c1=O)c1ccc(F)cc1 [Compound 646]
1: Plant response rating, Crabgrass (crabgrass; [4]) | Soybean plant response rating (soybean; [2])
0: Plant response rating, Crabgrass (crabgrass; [1]) | Crabgrass plant response rating (crabgrass; [2]) | Crabgrass plant response rating (crabgrass; [3]) | Crabgrass plant response rating (crabgrass; [5]) | Plant response rating, Crabgrass (crabgrass; [6]) | Plant response rating, Crabgrass (crabgrass; [7]) | Plant response rating, Rape (rape; [1]) | Rape plant response rating (rape; [2]) | Plant response rating, Rape (rape; [4]) | Rape plant response rating (rape; [8]) | Rape plant response rating (rape; [5]) | Plant response rating, Rape (rape; [6]) | Plant response rating, Rape (rape; [7]) | Plant response rating, Ducksalad (0 to 10 scale, 0 is no effect, 10 is complete control) (duck salad; [9]) | Ducksalad plant response rating (0 to 10 scale, 0 is no effect, 10 is complete control) (duck salad; [10]) | Ducksalad plant response rating (duck salad; [11]) | Ducksalad plant response rating (duck salad; [12]) | Plant response rating, Nutsedge (purple nutsedge; [1]) | Nutsedge plant response rating (purple nutsedge; [2]) | Plant response rating, Nutsedge (purple nutsedge; [4]) | Nutsedge plant response rating (purple nutsedge; [8]) | Nutsedge plant response rating (purple nutsedge; [5]) | Plant response rating, Nutsedge (purple nutsedge; [6]) | Plant response rating, Nutsedge (purple nutsedge; [7]) | Plant response rating, Cocklebur (cocklebur; [1]) | Cocklebur plant response rating (cocklebur; [2]) | Cocklebur plant response rating (cocklebur; [3]) | Plant response rating, Cocklebur (cocklebur; [4]) | Cocklebur plant response rating (cocklebur; [8]) | Cocklebur plant response rating (cocklebur; [5]) | Plant response rating, Cocklebur (cocklebur; [6]) | Plant response rating, Cocklebur (cocklebur; [7]) | Plant response rating, Wild oats (wild oat; [1]) | Wild oats plant response rating (wild oat; [2]) | Wild oats plant response rating (wild oat; [8]) | Wild oats plant response rating (wild oat; [5]) | Plant response rating, Wild oats (wild oat; [6]) | Plant response rating, Wild oats (wild oat; [7]) | Plant response rating, Sugarbeets (sugar beet; [1]) | Sugarbeets plant response rating (sugar beet; [2]) | Sugarbeets plant response rating (sugar beet; [8]) | Sugarbeets plant response rating (sugar beet; [5]) | Plant response rating, Sugarbeets (sugar beet; [6]) | Plant response rating, Sugarbeets (sugar beet; [7]) | Plant response rating, Redroot pigweed (pigweed; [1]) | Redroot pigweed plant response rating (pigweed; [2]) | Redroot pigweed plant response rating (pigweed; [8]) | Redroot pigweed plant response rating (pigweed; [5]) | Plant response rating, Redroot pigweed (pigweed; [6]) | Plant response rating, Redroot pigweed (pigweed; [7]) | Plant response rating, Morningglory (morningglory; [1]) | Morningglory plant response rating (morningglory; [2]) | Morningglory plant response rating (morningglory; [3]) | Morningglory plant response rating (morningglory; [8]) | Morningglory plant response rating (morningglory; [5]) | Plant response rating, Morningglory (morningglory; [6]) | Plant response rating, Morningglory (morningglory; [7]) | Plant response rating, Velvetleaf (velvetleaf; [1]) | Velvetleaf plant response rating (velvetleaf; [2]) | Velvetleaf plant response rating (velvetleaf; [8]) | Velvetleaf plant response rating (velvetleaf; [5]) | Plant response rating, Velvetleaf (velvetleaf; [6]) | Plant response rating, Velvetleaf (velvetleaf; [7]) | Plant response rating, Corn (corn; [1]) | Corn plant response rating (corn; [2]) | Corn plant response rating (corn; [3]) | Plant response rating, Corn (corn; [4]) | Corn plant response rating (corn; [8]) | Corn plant response rating (corn; [5]) | Plant response rating, Corn (corn; [6]) | Plant response rating, Corn (corn; [7]) | Plant response rating, Soybean (soybean; [1]) | Soybean plant response rating (soybean; [8]) | Soybean plant response rating (soybean; [5]) | Plant response rating, Soybean (soybean; [6]) | Plant response rating, Soybean (soybean; [7]) | Plant response rating, Giant foxtail (giant foxtail; [1]) | Giant foxtail plant response rating (giant foxtail; [2]) | Giant foxtail plant response rating (giant foxtail; [3]) | Plant response rating, Giant foxtail (giant foxtail; [4]) | Giant foxtail plant response rating (giant foxtail; [8]) | Giant foxtail plant response rating (giant foxtail; [5]) | Plant response rating, Giant foxtail (giant foxtail; [6]) | Plant response rating, Giant foxtail (giant foxtail; [7]) | Plant response rating, Rice (0 to 10 scale, 0 is no effect, 10 is complete control) (rice; [9]) | Rice plant response rating (0 to 10 scale, 0 is no effect, 10 is complete control) (rice; [10]) | Rice plant response rating (rice; [11]) | Rice plant response rating (rice; [12]) | Plant response rating, Wheat (wheat; [1]) | Wheat plant response rating (wheat; [2]) | Wheat plant response rating (wheat; [8]) | Wheat plant response rating (wheat; [5]) | Plant response rating, Wheat (wheat; [6]) | Plant response rating, Wheat (wheat; [7]) | Plant response rating, S. Flatsedge (0 to 10 scale, 0 is no effect, 10 is complete control) (smallflower flatsedge; [9]) | S. Flatsedge plant response rating (0 to 10 scale, 0 is no effect, 10 is complete control) (smallflower flatsedge; [10]) | S. Flatsedge plant response rating (smallflower flatsedge; [11]) | S. Flatsedge plant response rating (smallflower flatsedge; [12])
4: Plant response rating, Morningglory (morningglory; [4])

From patent publication US6737383B1, “Herbicidal oxadiazolidines” (priority 1999, dated 2004)
